Assay results published in patent US20240101576A1, “HETEROCYCLIC INHIBITORS OF EGFR AND/OR HER2, FOR USE IN THE TREATMENT OF CANCER” (Scorpion Therapeutics, Inc., priority 2020, published 2024).

Experiments:
Type in all cases: cell-based
EGFR WT (Ba/F3 cells) = target: T1, EGFR WT (Ba/F3 cells) (Homo sapiens, UniProt P00533); assay: Inhibitor activity on EGFR-dependent cell growth (CellTiter-Glo, 72 h), Ba/F3 EGFR WT; conditions: read-out: BaF3 WT IC50
T1 construct: expressed in transfected cells; host or cells: Ba/F3 (murine pro-B cells), retroviral transduction, puromycin selection, maintained with EGF
T1 sequence (P00533 25-1210): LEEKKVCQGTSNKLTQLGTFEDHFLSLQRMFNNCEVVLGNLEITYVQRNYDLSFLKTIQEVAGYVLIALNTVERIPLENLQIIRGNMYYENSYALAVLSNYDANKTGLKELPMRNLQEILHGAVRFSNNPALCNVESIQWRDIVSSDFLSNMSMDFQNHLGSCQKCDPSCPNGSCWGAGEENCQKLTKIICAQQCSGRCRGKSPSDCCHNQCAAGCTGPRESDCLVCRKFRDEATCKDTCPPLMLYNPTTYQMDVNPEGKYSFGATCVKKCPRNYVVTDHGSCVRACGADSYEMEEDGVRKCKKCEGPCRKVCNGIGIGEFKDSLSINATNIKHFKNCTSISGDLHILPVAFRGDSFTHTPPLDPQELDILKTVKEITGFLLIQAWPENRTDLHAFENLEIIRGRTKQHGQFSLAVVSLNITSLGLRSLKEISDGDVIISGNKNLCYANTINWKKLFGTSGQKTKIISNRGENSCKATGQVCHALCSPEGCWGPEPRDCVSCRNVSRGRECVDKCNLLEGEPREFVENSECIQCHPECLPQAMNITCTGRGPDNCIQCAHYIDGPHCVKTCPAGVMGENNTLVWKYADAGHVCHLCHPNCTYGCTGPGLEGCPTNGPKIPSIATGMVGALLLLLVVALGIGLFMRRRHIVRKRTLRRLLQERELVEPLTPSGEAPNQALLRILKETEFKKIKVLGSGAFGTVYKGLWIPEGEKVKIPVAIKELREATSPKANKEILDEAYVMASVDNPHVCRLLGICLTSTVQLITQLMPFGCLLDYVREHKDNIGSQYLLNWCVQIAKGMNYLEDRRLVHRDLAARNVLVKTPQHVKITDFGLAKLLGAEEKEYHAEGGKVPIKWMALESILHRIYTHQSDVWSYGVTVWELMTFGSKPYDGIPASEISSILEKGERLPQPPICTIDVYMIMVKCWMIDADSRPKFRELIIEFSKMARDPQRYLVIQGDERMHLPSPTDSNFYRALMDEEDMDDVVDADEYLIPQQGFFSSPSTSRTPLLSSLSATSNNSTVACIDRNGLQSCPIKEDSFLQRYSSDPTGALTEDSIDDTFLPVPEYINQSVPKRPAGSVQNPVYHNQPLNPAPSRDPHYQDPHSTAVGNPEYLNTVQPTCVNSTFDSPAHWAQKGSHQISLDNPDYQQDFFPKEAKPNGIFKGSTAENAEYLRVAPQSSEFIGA
Outline: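 This growth assay used Ba/F3 cells that depend on wild-type EGFR and are kept in EGF without IL3. Compounds were made up as 10 mM DMSO stocks and diluted 3-fold over 10 points. 120 nL went onto 600 cells/well. After 72 hours, 40 μL CellTiter-Glo was added and luminescence read on EnVision after 30 min.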

[1] = target: T2, EGFR exon 20 ASV Ins V769_D770 (Ba/F3 cells) (Homo sapiens, UniProt P00533, INS769ASV); assay: Inhibitor activity on EGFR-dependent cell growth (CellTiter-Glo, 72 h), Ba/F3 EGFR exon 20 ASV Ins; conditions: read-out: BaF3 ASV IC50
T2 construct: expressed in transfected cells; host or cells: Ba/F3 (murine pro-B cells), retroviral transduction, puromycin selection, IL3-independent pool
T2 sequence (P00533 with tags, fused parts or gaps INS769ASV): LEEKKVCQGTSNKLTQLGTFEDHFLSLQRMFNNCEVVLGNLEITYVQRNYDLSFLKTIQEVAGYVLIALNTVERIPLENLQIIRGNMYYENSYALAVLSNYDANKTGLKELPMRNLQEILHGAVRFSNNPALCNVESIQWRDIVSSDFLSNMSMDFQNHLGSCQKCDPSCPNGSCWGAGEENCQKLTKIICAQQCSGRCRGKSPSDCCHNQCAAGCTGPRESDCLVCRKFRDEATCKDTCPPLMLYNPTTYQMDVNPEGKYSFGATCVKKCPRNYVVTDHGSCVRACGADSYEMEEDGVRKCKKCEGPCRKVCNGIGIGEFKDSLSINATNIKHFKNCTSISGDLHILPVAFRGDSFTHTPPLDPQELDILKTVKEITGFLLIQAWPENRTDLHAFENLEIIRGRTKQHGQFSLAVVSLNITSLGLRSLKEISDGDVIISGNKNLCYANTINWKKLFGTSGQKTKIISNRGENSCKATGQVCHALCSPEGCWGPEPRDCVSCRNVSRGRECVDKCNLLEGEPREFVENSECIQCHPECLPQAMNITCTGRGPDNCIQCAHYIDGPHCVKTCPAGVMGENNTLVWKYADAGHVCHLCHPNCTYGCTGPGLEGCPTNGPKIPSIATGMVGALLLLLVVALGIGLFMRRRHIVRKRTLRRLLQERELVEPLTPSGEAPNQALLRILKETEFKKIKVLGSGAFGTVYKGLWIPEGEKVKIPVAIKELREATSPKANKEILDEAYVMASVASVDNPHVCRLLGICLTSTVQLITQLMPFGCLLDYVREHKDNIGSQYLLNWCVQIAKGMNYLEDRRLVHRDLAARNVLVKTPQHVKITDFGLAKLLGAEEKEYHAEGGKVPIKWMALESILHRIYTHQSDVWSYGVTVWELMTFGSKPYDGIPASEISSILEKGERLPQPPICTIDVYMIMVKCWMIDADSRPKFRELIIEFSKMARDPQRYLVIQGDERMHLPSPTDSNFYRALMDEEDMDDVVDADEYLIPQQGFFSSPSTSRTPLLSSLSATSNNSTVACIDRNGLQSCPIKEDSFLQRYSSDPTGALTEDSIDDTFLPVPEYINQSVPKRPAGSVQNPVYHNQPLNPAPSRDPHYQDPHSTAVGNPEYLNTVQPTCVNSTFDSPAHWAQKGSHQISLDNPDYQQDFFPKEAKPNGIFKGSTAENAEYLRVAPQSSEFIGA
Outline: (§1)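 IC50s derive from a sigmoidal dose–response fit of CellTiter-Glo signal. The signal was normalised between […]-treated cells and cell-free medium. Ba/F3 mutant-EGFR cells, seeded at 400–800/well depending on the line, had 72 h of exposure to a 10-point, 3-fold compound series.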

[2] = target: T3, EGFR exon 20 NPG Ins D770_N771 (Ba/F3 cells) (Homo sapiens, UniProt P00533, INS770NPG); assay: Inhibitor activity on EGFR-dependent cell growth (CellTiter-Glo, 72 h), Ba/F3 EGFR exon 20 NPG Ins; conditions: read-out: BaF3 NPG IC50
T3 construct: expressed in transfected cells; host or cells: Ba/F3 (murine pro-B cells), retroviral transduction, puromycin selection, IL3-independent pool
T3 sequence (P00533 with tags, fused parts or gaps INS770NPG): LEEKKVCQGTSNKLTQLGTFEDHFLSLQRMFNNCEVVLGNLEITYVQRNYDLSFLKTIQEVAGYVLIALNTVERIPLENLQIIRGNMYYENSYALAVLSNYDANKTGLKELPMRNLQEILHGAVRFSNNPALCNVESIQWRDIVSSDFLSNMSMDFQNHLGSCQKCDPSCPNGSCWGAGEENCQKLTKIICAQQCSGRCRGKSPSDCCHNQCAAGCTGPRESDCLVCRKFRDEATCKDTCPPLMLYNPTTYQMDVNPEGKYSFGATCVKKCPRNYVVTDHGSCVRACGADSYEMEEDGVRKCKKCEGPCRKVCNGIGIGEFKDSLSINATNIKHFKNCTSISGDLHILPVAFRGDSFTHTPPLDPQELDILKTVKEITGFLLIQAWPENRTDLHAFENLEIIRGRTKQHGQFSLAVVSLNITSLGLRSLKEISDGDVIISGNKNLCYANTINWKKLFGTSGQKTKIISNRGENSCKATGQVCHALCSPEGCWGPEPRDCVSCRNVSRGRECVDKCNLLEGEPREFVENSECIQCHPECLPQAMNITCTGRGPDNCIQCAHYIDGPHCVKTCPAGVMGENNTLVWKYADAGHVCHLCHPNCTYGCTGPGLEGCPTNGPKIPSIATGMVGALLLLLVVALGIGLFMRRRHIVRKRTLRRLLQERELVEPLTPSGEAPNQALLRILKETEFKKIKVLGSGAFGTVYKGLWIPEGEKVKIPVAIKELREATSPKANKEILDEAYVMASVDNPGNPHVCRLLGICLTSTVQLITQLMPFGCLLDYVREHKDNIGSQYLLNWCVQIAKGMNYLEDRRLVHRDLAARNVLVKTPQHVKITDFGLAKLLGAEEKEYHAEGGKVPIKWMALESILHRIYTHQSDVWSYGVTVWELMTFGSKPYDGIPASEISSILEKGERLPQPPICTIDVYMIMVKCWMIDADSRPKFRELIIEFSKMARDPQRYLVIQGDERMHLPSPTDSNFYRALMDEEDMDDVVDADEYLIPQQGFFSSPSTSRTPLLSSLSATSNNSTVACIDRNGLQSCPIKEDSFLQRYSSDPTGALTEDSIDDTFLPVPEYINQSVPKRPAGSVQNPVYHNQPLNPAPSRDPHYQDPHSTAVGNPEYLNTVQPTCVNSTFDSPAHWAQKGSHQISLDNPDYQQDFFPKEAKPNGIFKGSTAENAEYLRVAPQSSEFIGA
Text: Example A. Inhibitor Activity on EGFR-Dependent Cell Growth
Cell lines are generated by transducing Ba/F3 cells with retroviruses containing vectors with EGFR WT, EGFR L858R, EGFR exon 19del, EGFR L858R/C797S, EGFR exon 20 NPG Ins D770_N771, EGFR exon 20 ASV Ins V769_D770, EGFR exon 20 SVD Ins D770_N771, or EGFR exon 20 FQEA Ins A763_V764 genes and a puromycin selection marker. Transduced cells are selected with puromycin for 7 days and are then be transferred into culture media without Interleukin 3 (IL3). EGFR WT cells are maintained with supplemental EGF. Surviving cells are confirmed to express EGFR by Western blot and maintained as a pool. The IC50 date were included in Table 6 and Table 7.
1.1 Cells are harvested from flask into cell culture medium and the cell number counted.
1.2 Cells are diluted with culture medium to the desired density and 40 μL of cell suspension is added into each well of 384-well cell culture plate and the seeding density is 800 (FQEA, exon 19del), 600 (WT, NPG, L858R/C797S), or 400 (ASV, SVD, L858R) cells/well.
2 Compound Preparation and Treatment
2.1 Test compounds are dissolved to 10 mM in a DMSO stock solution. 45 μL of stock solution is transferred to a 384 polypropylene plate (pp-plate). Perform 3-fold, 10-point dilution via transferring 15 μL compound into 30 μL DMSO using a TECAN (EVO200) liquid handler.
2.2 Spin plates at room temperature at 1,000 RPM for 1 minute.
2.3 Transfer 120 nL of diluted compound from compound source plate into the cell plate.
2.4 After compound treatment for 72 hours, perform CTG detection for compound treatment plates as described in “Detection” section.
3.1 Plates are removed from incubators and equilibrated at room temperature for 15 minutes.
3.2 Thaw the CellTiter Glo reagents and allow to equilibrate to room temperature before the experiment.
3.3 Add 40 μL of CellTiter-Glo reagent into each well (at 1:1 to culture medium). Then place the plates at room temperature for 30 min followed by reading on EnVision.
4.1 Inhibition activity is calculated following the formula below:
% Inhibition=100×(LumHC−LumSample)/(LumHC−LumLC) • where HC is obtained from cells treated with 0.1% DMSO only; and LC is obtained from culture medium only.
4.2 2. Calculate the IC50 by fitting the Curve using Xlfit (v5.3.1.3), equation 201.
Y=Bottom+(Top−Bottom)/(1+10^((Log IC50−X)*HillSlope))

[3] = target: T4, EGFR exon 20 SVD Ins D770_N771 (Ba/F3 cells) (Homo sapiens, UniProt P00533, INS770SVD); assay: Inhibitor activity on EGFR-dependent cell growth (CellTiter-Glo, 72 h), Ba/F3 EGFR exon 20 SVD Ins; conditions: read-out: BaF3 SVD IC50
T4 construct: expressed in transfected cells; host or cells: Ba/F3 (murine pro-B cells), retroviral transduction, puromycin selection, IL3-independent pool
T4 sequence (P00533 with tags, fused parts or gaps INS770SVD): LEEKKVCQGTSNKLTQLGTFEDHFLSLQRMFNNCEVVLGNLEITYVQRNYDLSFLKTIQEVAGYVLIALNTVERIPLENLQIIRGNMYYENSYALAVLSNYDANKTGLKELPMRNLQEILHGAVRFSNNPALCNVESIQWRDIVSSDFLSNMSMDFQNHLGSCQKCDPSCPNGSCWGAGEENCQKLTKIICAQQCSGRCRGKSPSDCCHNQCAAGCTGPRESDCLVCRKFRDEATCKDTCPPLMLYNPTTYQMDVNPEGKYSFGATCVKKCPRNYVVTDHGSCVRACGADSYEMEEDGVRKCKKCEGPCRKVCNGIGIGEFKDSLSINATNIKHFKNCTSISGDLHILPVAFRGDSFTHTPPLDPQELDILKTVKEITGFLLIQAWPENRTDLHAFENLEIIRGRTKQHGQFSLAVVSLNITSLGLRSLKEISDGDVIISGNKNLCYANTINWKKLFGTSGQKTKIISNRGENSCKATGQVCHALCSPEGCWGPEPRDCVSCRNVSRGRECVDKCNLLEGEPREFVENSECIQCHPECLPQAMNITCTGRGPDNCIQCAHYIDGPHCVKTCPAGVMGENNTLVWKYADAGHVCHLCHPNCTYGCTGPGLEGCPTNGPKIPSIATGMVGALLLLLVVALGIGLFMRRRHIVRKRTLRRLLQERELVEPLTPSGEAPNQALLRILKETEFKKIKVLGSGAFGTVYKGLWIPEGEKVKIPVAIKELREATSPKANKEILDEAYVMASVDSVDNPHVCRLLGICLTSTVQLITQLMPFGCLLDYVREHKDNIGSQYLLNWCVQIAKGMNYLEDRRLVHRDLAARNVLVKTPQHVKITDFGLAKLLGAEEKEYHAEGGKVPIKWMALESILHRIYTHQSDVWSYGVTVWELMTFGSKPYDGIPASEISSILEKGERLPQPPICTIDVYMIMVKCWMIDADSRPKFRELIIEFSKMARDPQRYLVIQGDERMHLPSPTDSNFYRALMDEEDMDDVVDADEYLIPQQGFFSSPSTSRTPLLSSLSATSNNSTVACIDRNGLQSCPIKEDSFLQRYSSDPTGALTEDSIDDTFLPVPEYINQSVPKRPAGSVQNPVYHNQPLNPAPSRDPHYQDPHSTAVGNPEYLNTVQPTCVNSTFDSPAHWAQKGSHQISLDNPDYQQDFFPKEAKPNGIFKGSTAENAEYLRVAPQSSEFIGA
Outline: as §1

Compound | IC50 (EGFR WT (Ba/F3 cells)) | IC50 [1] | IC50 [2] | IC50 [3]
COc1c(Cl)cccc1Nc1c(-c2ccnc(-c3cnn(C)c3)n2)[nH]c2c1C(=O)NCC2 [compound 121] | 100 to 1000 nM | < 100 nM | < 100 nM | < 100 nM
COc1c(F)cccc1Nc1c(-c2ccnc(C)n2)[nH]c2c1C(=O)NCC2C[C@@H]1COCCO1 (single isomer, unassigned) [Compound 605] | > 1000 nM | 100 to 1000 nM | 100 to 1000 nM | 100 to 1000 nM
C=CC(=O)N1CCC2(CC1)CNC(=O)c1c2[nH]c(-c2ccncc2F)c1Nc1cccc(Cl)c1CC [Compound 558, 3′-[(3-chloro-2-ethylphenyl)amino]-2′-(3-fluoropyridin-4-yl)-1-(prop-2-enoyl)-5′,6′-dihydro-1′H-spiro[piperidine-4,7′-pyrrolo[3,2-c]pyridin]-4′-one] | < 100 nM | < 100 nM | < 100 nM | < 100 nM
CCn1cc(Nc2nccc(-c3[nH]c4c(c3Nc3cccc(Cl)c3OC)C(=O)NCC4)n2)nn1 [Compound 594, 3-[(3-chloro-2-methoxyphenyl)amino]-2-{2-[(1-ethyl-1,2,3-triazol-4-yl)amino]pyrimidin-4-yl}-1H,5H,6H,7H-pyrrolo[3,2-c]pyridin-4-one] | 100 to 1000 nM | < 100 nM | < 100 nM | < 100 nM
COc1c(Cl)cccc1Nc1c(-c2ccnc(Nc3ccn(CC(C)(C)O)n3)n2)[nH]c2c1C(=O)NCC2 [compound 537, 3-[(3-chloro-2-methoxyphenyl)amino]-2-(2-{[1-(2-hydroxy-2-methylpropyl)pyrazol-3-yl]amino}pyrimidin-4-yl)-1H,5H,6H,7H-pyrrolo[3,2-c]pyridin-4-one] | 100 to 1000 nM | < 100 nM | < 100 nM | < 100 nM
C=CC(=O)N1CCC2(CC1)CNC(=O)c1c2[nH]c(-c2ccnc(N)n2)c1Nc1cccc(Cl)c1OC [Compound 556, 2′-(2-aminopyrimidin-4-yl)-3′-[(3-chloro-2-methoxyphenyl)amino]-1-(prop-2-enoyl)-5′,6′-dihydro-1′H-spiro[piperidine-4,7′-pyrrolo[3,2-c]pyridin]-4′-one] | 100 to 1000 nM | < 100 nM | < 100 nM | < 100 nM
COc1c(Cl)cccc1Nc1c(-c2ccnc(Nc3cnnn3CS(C)(=O)=O)n2)[nH]c2c1C(=O)NCC2 [compound 539, 3-[(3-chloro-2-methoxyphenyl)amino]-2-(2-{[3-(methanesulfonylmethyl)-1,2,3-triazol-4-yl]amino}pyrimidin-4-yl)-1H,5H,6H,7H-pyrrolo[3,2-c]pyridin-4-one] | > 1000 nM | 100 to 1000 nM | 100 to 1000 nM | 100 to 1000 nM
C=CC(=O)N1CCC2(CC1)CNC(=O)c1c2[nH]c(-c2ccncc2F)c1Nc1ccc(Cl)c(F)c1 [Compound 588, 3′-[(4-chloro-3-fluorophenyl)amino]-2′-(3-fluoropyridin-4-yl)-1-(prop-2-enoyl)-5′,6′-dihydro-1′H-spiro[piperidine-4,7′-pyrrolo[3,2-c]pyridin]-4′-one] | < 100 nM | < 100 nM | < 100 nM | < 100 nM
C=CC(=O)N1CCC2(CC1)CNC(=O)c1c2[nH]c(-c2ccncc2F)c1Nc1cccc(Cl)c1Cl [Compound 589, 3′-[(2,3-dichlorophenyl)amino]-2′-(3-fluoropyridin-4-yl)-1-(prop-2-enoyl)-5′,6′-dihydro-1′H-spiro[piperidine-4,7′-pyrrolo[3,2-c]pyridin]-4′-one] | 100 to 1000 nM | < 100 nM | < 100 nM | < 100 nM
COCCOc1cncnc1-c1[nH]c2c(c1Nc1cccc(F)c1OC)C(=O)NCC2 [Compound 676, 3-[(3-fluoro-2-methoxyphenyl)amino]-2-[5-(2-methoxyethoxy)pyrimidin-4-yl]-1H,5H,6H,7H-pyrrolo[3,2-c]pyridin-4-one] | > 1000 nM | – | > 1000 nM | –

Results, then the molecule that gave them:

IC50 (EGFR WT (Ba/F3 cells)) | IC50 [1] | IC50 [2] | IC50 [3] | Compound
100 to 1000 nM | < 100 nM | 100 to 1000 nM | 100 to 1000 nM | C=CC(=O)N1CCC2(CC1)CNC(=O)c1c2[nH]c(-c2ccnc(N)n2)c1Nc1cccc(F)c1OC [Compound 162, 1-acryloyl-2′-(2-aminopyrimidin-4-yl)-3′-((3-fluoro-2-methoxyphenyl)amino)-5′,6′-dihydrospiro[piperidine-4,7′-pyrrolo[3,2-c]pyridin]-4′(1′H)-one]
> 1000 nM | > 1000 nM | 100 to 1000 nM | 100 to 1000 nM | COc1c(Cl)cccc1Nc1c(-c2ccnc(-c3ccncn3)n2)[nH]c2c1C(=O)NCC2 [compound 546, 2-{[2,4′-bipyrimidin]-4-yl}-3-[(3-chloro-2-methoxyphenyl)amino]-1H,5H,6H,7H-pyrrolo[3,2-c]pyridin-4-one]
100 to 1000 nM | < 100 nM | < 100 nM | < 100 nM | C=CC(=O)N1CCC2(CC1)CNC(=O)c1c2[nH]c(-c2ccncc2F)c1Nc1cccc(F)c1SC [Compound 560, 3′-{[3-fluoro-2-(methylsulfanyl)phenyl]amino}-2′-(3-fluoropyridin-4-yl)-1-(prop-2-enoyl)-5′,6′-dihydro-1′H-spiro[piperidine-4,7′-pyrrolo[3,2-c]pyridin]-4′-one]
100 to 1000 nM | < 100 nM | < 100 nM | < 100 nM | COc1c(F)cccc1Nc1c(-c2ccnc(Nc3cnnn3C)n2)[nH]c2c1C(=O)NCC2 [compound 591, 3-[(3-fluoro-2-methoxyphenyl)amino]-2-{2-[(3-methyl-1,2,3-triazol-4-yl)amino]pyrimidin-4-yl}-1H,5H,6H,7H-pyrrolo[3,2-c]pyridin-4-one]
> 1000 nM | < 100 nM | < 100 nM | < 100 nM | COc1c(F)cccc1Nc1c(-c2ccnc(C)n2)[nH]c2c1C(=O)NCC2C[C@H]1COCCO1 (single isomer, unassigned) [Compound 603]
> 1000 nM | – | < 100 nM | – | COc1c(Cl)cccc1Nc1c(-c2ccncn2)[nH]c2c1C(=O)NC[C@@H]2C[C@@H]1COCCO1 [Compound 528, (7S)-3-[(3-chloro-2-methoxyphenyl)amino]-7-[(2R)-1,4-dioxan-2-ylmethyl]-2-(pyrimidin-4-yl)-1H,5H,6H,7H-pyrrolo[3,2-c]pyridin-4-one]
> 1000 nM | > 1000 nM | > 1000 nM | > 1000 nM | COc1c(F)cccc1Nc1c(-c2ccnc(Nc3nnn(C)c3C)n2)[nH]c2c1C(=O)NCC2 [compound 608, 2-{2-[(1,5-dimethyl-1,2,3-triazol-4-yl)amino]pyrimidin-4-yl}-3-[(3-fluoro-2-methoxyphenyl)amino]-1H,5H,6H,7H-pyrrolo[3,2-c]pyridin-4-one]
100 to 1000 nM | 100 to 1000 nM | < 100 nM | 100 to 1000 nM | COC(=O)N1CCC2(CNC(=O)c3c2[nH]c(-c2ccncc2F)c3Nc2cccc(Cl)c2OC)C1 (single isomer, unassigned) [Compound 497]
> 1000 nM | – | < 100 nM | – | COc1c(Cl)cccc1Nc1c(-c2ccncn2)[nH]c2c1C(=O)NCC2C[C@H]1COCCO1 (single isomer, unassigned) [Compound 574, (7R*)-3-[(3-chloro-2-methoxyphenyl)amino]-7-[(2S)-1,4-dioxan-2-ylmethyl]-2-(pyrimidin-4-yl)-1H,5H,6H,7H-pyrrolo[3,2-c]pyridin-4-one]
